US20030144233A1, “Conformation-activity relationship of apoptosis-inducing phosphodiester oligonucleotides” (priority 2001, published 2003)

Tested on: Human Jurkat T cell leukemia cells
Assay: Analysis of apoptosis by Annexin V FITC / propidium iodide staining and flow cytometry
Assay type: cell-based
Conditions: for % apoptosis / Apoptosis (%): Jurkat T cells, oligonucleotides at final concentration of 53 μM; for Apoptosis (%): Table 1
Experimental: Human Jurkat T cell leukemia cells were obtained from the American Type Culture Collection (Rockville, Md.). The Jurkat T cells were maintained RPMI 1640 medium, supplemented with 10% heat-inactivated (56° C., 30 min) fetal bovine serum (all from Sigma Aldrich, Canada) in an atmosphere of 5% CO2 at 37° C. Cells were seeded at 2×10^5 cells/ml medium in 6-well float-bottomed tissue culture plates and incubated with oligonucleotides at a final concentration of 53 μM.
Apoptosis was measured by staining cells with Annexin V FITC and propidium iodide (PI) (BD Pharmingen, San Diego, Calif. USA) according to the manufacturer's instructions. Flow Cytometry (FCM) determined cellular fluorescence. The FCM and data analysis were carried out using a FACSCalibur instrument (excitation 488 nm, emission 530 nm for Annexin-V and 580 nm for PI) using the program CELLQuest.

Row | Sequence | % apoptosis (Table 3) [%] | Apoptosis (%) | further results
1 | TGGTTG | 69 | – | –
2 | TGTGTG | 66 | – | –
3 | TCGTTC | – | 9.5 | –
4 | GGGAG | – | – | ACTUAL % OF CELLS IN APOPTOSIS (new sequences tested in vitro after prediction, Table 4): 73%
5 | GGCCGG | – | – | % apoptosis (Table 2): 21%
6 | CTGTCT | – | 14 | –
7 | CCGTCC | – | 5 | –
8 | GGAAGG | 59 | – | –
9 | AAGTAA | – | – | % apoptosis (Table 2): 23%
10 | GGTTGG | 66 | – | –
11 | GGGGGG | – | 4 | –
12 | GGGCGG | – | 17 | –
13 | GGGTGG | 50 | – | apoptosis-inducing activity (phosphodiester versus phosphorothioate backbone): 50%
14 | ATGTAT | – | – | % apoptosis (Table 2): 37%
15 | GTGTGT | 67 | – | –
